Consider one compound from patent US20250179167A1, “IL-6 INHIBITOR AS TREATMENT FOR NEPHROPATHY” (YALE UNIVERSITY, priority 2022, published 2025).

In the assay the test system is control and GR^ECKO mice. Put plainly: Wnt inhibitor (LGK974) treatment in nondiabetic and diabetic control and GR^ECKO mice. The assay is classed as in vivo, mouse. The procedure:
(FIG. 5A) Schematic diagram showing the treatment protocol of Wnt inhibition in diabetic control and GR^ECKO mice. (FIG. 5B) Physiological parameters including body weight, blood glucose and kidney weight/body weight were analyzed. N=6 biologically independent mice/group combined from two experiments. (FIG. 5C) Masson trichrome, Sirius red and PAS staining as well as immunohistochemical analysis of β-catenin levels in the kidneys of wnti-treated diabetic control and GR^ECKO mice. Representative images are shown; original magnification 300×. Relative area of fibrosis (%) and relative collagen deposition (%) were measured using the ImageJ program. N=8 biologically independent mice/group combined from three experiments were analyzed. Scale bar 50 μm. Data are mean SEM. For all panels one-way ANOVA with Tukey post-test was used for analysis of statistical significance. Significance—*p<0.05, **p<0.01, ***p<0.001.
Physiological parameters including body weight, blood glucose, and kidney weight/body weight are shown. n=7 biologically independent mice/group combined from two experiments were analyzed. Data are mean±SEM. One-way Anova with Tukey multiple comparison post hoc test was used to calculate statistical significance.
FIGS. 27A-27B Histological analysis of kidneys from Wnt inhibitor-treated nondiabetic control and GR^ECKO mice. (FIG. 27A) Masson trichrome staining (MITS) and Sirius red staining in Wnt inhibitor-treated nondiabetic control and GR^ECKO mice. Representative images are shown; original magnification 200×. Area of fibrosis (%) and relative collagen deposition (%) were measured using the ImageJ program. N=5 biologically independent mice/group were analyzed. Data are mean±SEM. Scale bar 50 μm. (FIG. 27B) Immunohistochemical analysis of -catenin expression in the kidneys of Wnt inhibitor-treated nondiabetic control and GR^ECKO mice. Scale bar 30 μm. n=6 biologically independent mice/group combined from two independent experiments were analyzed. Representative images are shown; original magnification 300×. One-way Anova with Tukey multiple comparison post hoc test was used to calculate statistical significance. Significance—*p<0.05, **p<0.01, ***p<0.001.
Immunohistochemical analysis of Snail1, PPAR. and HIF1. expression in the Wnti-treated and untreated control, and GR^ECKO mice. Scale bar 50 μm. n=7 biologically independent mice/group combined from three independent experiments were analyzed. Representative images are shown; original magnification 200×.
Immunofluorescence analysis of α-SMA/CD31/DAPI and E-cadherin/α-SMA/DAPI in kidneys of Wnt inhibitor-treated nondiabetic and diabetic mice. Top panel: α-SMA FITC labelled, CD31 rhodamine labelled and DAPI blue; Lower panel: E-Cadherin FITC-green labelled, α-SMA red rhodamine labelled and DAPI blue. Representative images are shown; original magnification 400×. Scale bar 50 μm. n=6 biologically independent mice/group combined from three independent experiments were analyzed. NC: non-diabetic control; DC: diabetic control; D: diabetic.
To determine whether Wnt inhibition could mitigate the renal fibrosis observed in diabetic GR^ECKO mice, a cohort of animals was treated with LGK974. At the age of 8 weeks, control and GR^ECKO mice were injected with STZ 50 mg/kg for five consecutive days. Sixteen weeks after injection, LGK974 was administered by oral gavage for eight additional weeks (FIG. 5A).
Animal Experimentation. All experiments were performed according to a protocol approved by the Institutional Animal Care and Use Committee at the Yale University School of Medicine and were in accordance with the National Institute of Health (NIH) Guidelines for the Care of Laboratory Animals Mice were housed at an ambient temperature of 68-79° F. with a humidity that ranged between 30%-70%. […]

The mark [1] stands for this setting: nondiabetic control mice or nondiabetic GR^ECKO, compared to untreated nondiabetic controls.

Each structure is given as a SMILES string.

Turning to `Cc1cc(-c2ncc(CC(=O)Nc3ccc(-c4cnccn4)cn3)cc2C)ccn1` [LGK974], for the setting “control and diabetic GR^ECKO mice”, the “level of EMT (E-cadherin/αSMA double positive cells)” value is recorded as “significantly reduced”. Moreover, the kidney weight result (diabetic GR^ECKO and diabetic control mice) was “significant reduction”. In addition, where the note is “diabetic GR^ECKO mice”, the “EndMT (CD31/αSMA double positive cells)” value is “less pronounced”; the “relative area of fibrosis” value is “less pronounced, though still significant”; the relative collagen deposition result is reported as “less pronounced, though still significant”; the tubular damage entry is “less pronounced, though still significant”. Moreover, where the note is “diabetic control mice”, the “EndMT (CD31/αSMA double positive cells)” value was “significantly suppressed”, the “relative area of fibrosis” value is on record as “clearly improved”, the relative collagen deposition entry is on record as “clearly improved” and the tubular damage entry is recorded as “clearly improved”. For the setting “kidneys of diabetic GR^ECKO”, the “expression of HIF1α” value is reported as “suppressed”, the “expression of Snail1” value is “suppressed” and the “level of PPARα” value is on record as “significantly increased”. Also, under setting [1], the renal fibrogenic phenotype entry is “did not result in any remarkable change” and the β-catenin level result was “did not result in any remarkable change”.
